{"source": "PubChem BioAssay AID270", "about": "(DTP/NCI, 2004)", "test_system": "BDF1 mice, s.c. Lewis lung carcinoma, T/C %", "experiment": "NCI In Vivo Anticancer Drug Screen. Data for tumor model Lewis Lung Carcinoma (subcutaneous) in B6D2F1 (BDF1) mice", "in_short": "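The value reflects a ratio in which the treated cohort's survival time or tumour size is compared against mice receiving only vehicle.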", "key": {"[1]": {"settings": "endpoint: mean tumor weight, dose: 50.0 mg/kg/injection, schedule: Q01DX011 (ip), vehicle: other, higher = larger tumour"}}, "note": "Values joined by “and” are separate entries in the source; they are usually repeats but may differ in a detail not shown here. Equal values may be shown once. Records with an inconclusive call do not appear."}
{"smiles": "CN(N=O)C(=O)N[C@@H](C=O)[C@@H](O)[C@H](O)[C@H](O)CO", "values": [{"measurement": "T/C", "setting": "endpoint: mean tumor weight (est.), dose: 20.0 mg/kg/injection, schedule: Q01DX009 (ip), vehicle: water, higher = larger tumour", "result": "93 % of control"}, {"measurement": "T/C", "setting": "endpoint: mean tumor weight (est.), dose: 40.0 mg/kg/injection, schedule: Q01DX009 (ip), vehicle: water, higher = larger tumour", "result": "65 % of control"}, {"measurement": "T/C", "setting": "endpoint: mean tumor weight (est.), dose: 80.0 mg/kg/injection, schedule: Q01DX009 (ip), vehicle: water, higher = larger tumour", "result": "42 % of control"}, {"measurement": "T/C", "setting": "endpoint: median survival time, dose: 20.0 mg/kg/injection, schedule: Q01DX009 (ip), vehicle: water, higher = longer survival", "result": "115 % of control"}, {"measurement": "T/C", "setting": "endpoint: median survival time, dose: 40.0 mg/kg/injection, schedule: Q01DX001 (ip), vehicle: other, higher = longer survival", "result": "99 % of control and 105 % of control"}, {"measurement": "T/C", "setting": "endpoint: median survival time, dose: 40.0 mg/kg/injection, schedule: Q01DX001 (ip), vehicle: saline, higher = longer survival", "result": "86 % of control"}, {"measurement": "T/C", "setting": "endpoint: median survival time, dose: 40.0 mg/kg/injection, schedule: Q01DX009 (ip), vehicle: water, higher = longer survival", "result": "94 % of control"}, {"measurement": "T/C", "setting": "endpoint: median survival time, dose: 80.0 mg/kg/injection, schedule: Q01DX001 (ip), vehicle: other, higher = longer survival", "result": "90 % of control and 108 % of control"}, {"measurement": "T/C", "setting": "endpoint: median survival time, dose: 80.0 mg/kg/injection, schedule: Q01DX001 (ip), vehicle: saline, higher = longer survival", "result": "94 % of control"}, {"measurement": "T/C", "setting": "endpoint: median survival time, dose: 160.0 mg/kg/injection, schedule: Q01DX001 (ip), vehicle: other, higher = longer survival", "result": "98 % of control and 111 % of control"}, {"measurement": "T/C", "setting": "endpoint: median survival time, dose: 160.0 mg/kg/injection, schedule: Q01DX001 (ip), vehicle: saline, higher = longer survival", "result": "108 % of control"}, {"measurement": "T/C", "setting": "endpoint: median survival time, dose: 320.0 mg/kg/injection, schedule: Q01DX001 (ip), vehicle: other, higher = longer survival", "result": "99 % of control"}, {"measurement": "T/C", "setting": "endpoint: median survival time, dose: 320.0 mg/kg/injection, schedule: Q01DX001 (ip), vehicle: saline, higher = longer survival", "result": "91 % of control"}]}
{"smiles": "O=C1CCC(=O)N1Br", "values": [{"measurement": "T/C", "setting": "[1]", "result": "99 % of control"}, {"measurement": "T/C", "setting": "endpoint: mean tumor weight, dose: 75.0 mg/kg/injection, schedule: Q01DX011 (ip), vehicle: other, higher = larger tumour", "result": "59 % of control and 75 % of control"}, {"measurement": "T/C", "setting": "endpoint: mean tumor weight, dose: 150.0 mg/kg/injection, schedule: Q01DX011 (ip), vehicle: other, higher = larger tumour", "result": "76 % of control"}, {"measurement": "T/C", "setting": "endpoint: mean tumor weight, dose: 300.0 mg/kg/injection, schedule: Q01DX011 (ip), vehicle: other, higher = larger tumour", "result": "115 % of control"}]}
{"smiles": "CNC(C)C(O)c1ccccc1", "note": "(stereo not given)", "values": [{"measurement": "T/C", "setting": "endpoint: mean tumor weight, dose: 66.6 mg/kg/injection, schedule: Q01DX011 (ip), vehicle: saline, higher = larger tumour", "result": "109 % of control"}]}
{"smiles": "CC(C)Sc1nc(N)nc2nc[nH]c12", "values": [{"measurement": "T/C", "setting": "endpoint: mean tumor weight, dose: 12.5 mg/kg/injection, schedule: Q01DX011 (ip), vehicle: other, higher = larger tumour", "result": "75 % of control"}, {"measurement": "T/C", "setting": "endpoint: mean tumor weight, dose: 25.0 mg/kg/injection, schedule: Q01DX011 (ip), vehicle: other, higher = larger tumour", "result": "95 % of control"}, {"measurement": "T/C", "setting": "[1]", "result": "67 % of control"}, {"measurement": "T/C", "setting": "endpoint: mean tumor weight, dose: 100.0 mg/kg/injection, schedule: Q01DX011 (ip), vehicle: other, higher = larger tumour", "result": "48 % of control and 62 % of control"}, {"measurement": "T/C", "setting": "endpoint: mean tumor weight, dose: 200.0 mg/kg/injection, schedule: Q01DX011 (ip), vehicle: other, higher = larger tumour", "result": "52 % of control"}, {"measurement": "T/C", "setting": "endpoint: mean tumor weight, dose: 400.0 mg/kg/injection, schedule: Q01DX011 (ip), vehicle: other, higher = larger tumour", "result": "30 % of control"}]}
{"smiles": "CCN(CC)Cc1cc(Nc2c3ccccc3nc3cc(Cl)ccc23)ccc1O", "values": [{"measurement": "T/C", "setting": "endpoint: mean tumor weight, dose: 40.0 mg/kg/injection, schedule: Q01DX011 (ip), vehicle: other, higher = larger tumour", "result": "48 % of control"}]}
{"smiles": "COC(=O)Nc1nc2ccc(C(=O)c3ccccc3)cc2[nH]1", "values": [{"measurement": "T/C", "setting": "endpoint: median survival time, dose: 2.0 mg/kg/injection, schedule: Q04DX003 (ip), vehicle: saline with Tween-80, higher = longer survival", "result": "89 % of control"}, {"measurement": "T/C", "setting": "endpoint: median survival time, dose: 4.0 mg/kg/injection, schedule: Q04DX003 (ip), vehicle: saline with Tween-80, higher = longer survival", "result": "95 % of control"}, {"measurement": "T/C", "setting": "endpoint: median survival time, dose: 8.0 mg/kg/injection, schedule: Q04DX003 (ip), vehicle: saline with Tween-80, higher = longer survival", "result": "98 % of control"}, {"measurement": "T/C", "setting": "endpoint: median survival time, dose: 32.0 mg/kg/injection, schedule: Q04DX003 (ip), vehicle: saline with Tween-80, higher = longer survival", "result": "95 % of control"}, {"measurement": "T/C", "setting": "endpoint: median survival time, dose: 64.0 mg/kg/injection, schedule: Q04DX003 (ip), vehicle: saline with Tween-80, higher = longer survival", "result": "102 % of control"}]}
